Source: US4534978A, “Perfluorocycloamines” (The Green Cross Corporation, priority 1984, dated 1985)

Columns and labels:
Acute Toxicity Test = format: in vivo, Wister-strain male rats; conditions: emulsion i.v., 100 ml/kg-body weight, observed one week, male rats
Procedure: The acute toxicity test on the preparations of the present invention was carried out using the preparations of the present invention shown in Table 4 which had been physiologically isotonized. The test animals used were Wister-strain male rats (weighing 100-120 g).
The results are such that with either emulsion containing perfluoro-N-cyclohexylprrolidine or perfluoro-N-(3'-methylcyclohexyl)pyrrolidine, thre was no death case at 100 ml/kg-body weight and thus their toxicity are very small.

[1] = Distribution of Perfluoro-compound in Organs; format: in vivo, Wister-strain male rats; conditions: 4 g/kg into the tail vein, male rats
Source text: The content of perfluoro-N-cyclohexylpyrrolidine uptake in each organ 1, 2 and 4 weeks and 3 months after the administration are shown in Table 5.

Structure (SMILES)	death cases (Acute Toxicity Test)	toxicity (Acute Toxicity Test)	adverse influence on the liver or spleen organ [1]	uptake by the reticulo-endothelial organs and disappearance [1]	Residual Rate of perfluoro-compound ([1]; Liver, 1 week after administration)	Residual Rate of perfluoro-compound ([1]; Liver, 2 weeks after administration)	Residual Rate of perfluoro-compound ([1]; Liver, 3 months after administration)	Residual Rate of perfluoro-compound ([1]; Liver, 4 weeks after administration)	Residual Rate of perfluoro-compound ([1]; Spleen, 1 week after administration)	Residual Rate of perfluoro-compound ([1]; Spleen, 2 weeks after administration)	Residual Rate of perfluoro-compound ([1]; Spleen, 3 months after administration)	Residual Rate of perfluoro-compound ([1]; Spleen, 4 weeks after administration)	half-life ([1]; rat, in vivo, iv, 4000 mg/kg, calculated)
FC1(F)N(C2(F)C(F)(F)C(F)(F)C(F)(F)C(F)(F)C2(F)F)C(F)(F)C(F)(F)C1(F)F [Example 1, perfluoro-N-cyclohexylpyrrolidine]	no death case	very small	no evidence of adverse influence on the liver or spleen organ	taken up in greater amounts by the reticulo-endothelial organs shortly after the administration, but soon disappeared rapidly	21.23%	13.63%	0.24%	4.98%	12.33%	10.49%	0.51%	8.52%	16 days
FC(F)(F)C1(F)C(F)(F)C(F)(F)C(F)(F)C(F)(N2C(F)(F)C(F)(F)C(F)(F)C2(F)F)C1(F)F (stereo not drawn) [Example 38, perfluoro-N-(3'-methylcyclohexyl)pyrrolidine]	no death case	very small	–	–	–	–	–	–	–	–	–	–	–
